Where two headings read alike, the source gives them in different places.
What was measured:
WM793 cells = test: Cell proliferation assay (CellTiter-Glo); type: cell-based; details: 3 d, read-out: Cell proliferation qualified AC50
Procedure: (§1) Cancer cell media was prepared by adding 500 mL of RPMI (ThermoFisher cat ##22400-089) and 10% Fetal Bovine Serum (Gibco) for WM793 cells (ATCC Cat #CRL-2806, RRID: CVCL 8787) and F12K (Thermo Fisher cat #21127-022, 500 mL; or 21127-030, 10×500 mL)+10% FBS for PC3 (ATCC CRL-1435) cells. The entire media with supplements was filter sterilized through a 0.4 μm bottle top filter system. Cancer cell lines were detached from traditional cell culture flasks by washing three times with 1×PBS and adding an appropriate amount of 0.25% TrypLE™ Express Enzyme (1×), no phenol red (ThermoFisher cat #12604013) to create a thin layer over the cells. Trypsin was neutralized with media containing serum and proceeded to count the cells.
After counting the cells, the concentration of the cell solution was adjusted to seed a total of 750 cells per well in 50 μL of complete media into 384-well tissue culture treated plates. In a biological safety cabinet, cells were seeded using a sterilized small stainless steel tipped cassette on a Multi-drop Combi. Between different cell lines, the tubing of the cassette was flushed with 1× sterile PBS for 10 seconds. Alternatively, cells can be seeded using a Multi-flow located within a Hepa filtered robotics room using either a sterilized small sapphire jewel tipped cassette and the peristatic pump, or the attached syringe pump, depending on volume of plates per cell line needed. The plates were placed in an incubator set at 37° C., with 5% CO2 and 95% relative humidity. A 10-point, 3-fold serial dilutions of compounds in 100% DMSO was prepared on a liquid handling robot with a 10 mM top concentration. 100 nL/well in three assay plates/1 compound was dispensed to source plate, with the highest concentration at 20 μM. After addition of compound was complete, plates were placed into an incubator at 37° C., with 5% CO2 and 95% relative humidity for 3 d. An adequate volume of CellTiter-Glo® (Promega #G7571) detection reagent was pre-warmed to RT or in a 37° C. H2O bath. 25 μL of the reagent was added to each well using either a Multi-drop Combi or MultiFlo and incubate at RT for at least 15 min. Luminesce was captured on a plate luminometer such as an Envision or View Lux to measure Day 0 time point both select cell lines. LUM plus, gain 3500, 0.1 s and focal height 12.5 mm on PheraStar reader. At Day 3, an adequate volume of CellTiter-Glo® detection reagent was pre-warmed at RT or in a 37° C. H2O bath. A total of 25 μL of the reagent was added to each well using either a Multi-drop Combi or MultiFlo and incubate at RT for at least 15 min. Luminesce was captured on a plate luminometer such as an Envision or View Lux to measure Day 3 time point both select cell lines. LUM plus, gain 3500, 0.1 s and focal height 12.5 mm on PheraStar reader. Raw data was extracted from the instrument and all fields containing test compounds were normalized to the average of all wells containing DMSO alone from Day 3 as neutral control and Day 0 starting numbers. From this value, percent growth inhibition of each compound was calculated. Dose response curves and growth inhibitory IC50s were generated by graphing the normalized data values against the compound concentration using a program such as GraphPad™ or Excel Fit.

[1] = biological target: T1, nanobit-large-bit-ERK2 and nanobit-small-bit-PEA15 in WM793 cells (Homo sapiens, UniProt P28482); test: NanoBiT assay; type: cell-based; details: WM793 nanobit stable cell line, overnight incubation; read-out: NanoBiT qualified absolute AC50
T1 construct: expressed in transfected cells
T1 sequence (P28482 whole entry): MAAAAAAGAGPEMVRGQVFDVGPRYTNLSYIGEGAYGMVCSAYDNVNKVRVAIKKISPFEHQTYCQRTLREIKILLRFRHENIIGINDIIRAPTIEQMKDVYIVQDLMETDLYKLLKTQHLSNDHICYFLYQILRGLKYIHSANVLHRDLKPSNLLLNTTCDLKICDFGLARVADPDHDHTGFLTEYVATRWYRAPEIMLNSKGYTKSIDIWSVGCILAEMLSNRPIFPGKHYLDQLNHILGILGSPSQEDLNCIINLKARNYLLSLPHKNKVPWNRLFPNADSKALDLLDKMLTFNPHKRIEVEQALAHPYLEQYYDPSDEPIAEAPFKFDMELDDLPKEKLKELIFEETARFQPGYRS
Procedure: as §1
A nanobit stable cell line was generated using WM793 cells with nanobit-large-bit-ERK2 and nanobit-small-bit-PEA15. […] In a biological safety cabinet, cells were seeded using a sterilized small stainless steel tipped cassette on a Multi-drop Combi. Between different cell lines, the tubing of the cassette was flushed with 1× sterile PBS for 10 s. Alternatively, cells can be seeded using a Multi-flow located within a Hepa filtered robotics room using either a sterilized small sapphire jewel tipped cassette and the peristatic pump, or the attached syringe pump, depending on volume of plates per cell line needed. The plates were placed in an incubator set at 37° C., with 5% CO2 and 95% relative humidity. A 10-point, 3-fold serial dilution of compounds was prepared in 100% DMSO on a liquid handling robot with a 10 mM top concentration. 90 nl/well was dispensed in three assay plates/1 compound source plate, with the highest concentration at 30 μM. After addition of compound was complete, the plates were placed into an incubator at 37° C., with 5% CO2 and 95% relative humidity for overnight. Luminescence was captured on a plate luminometer such as an Envision or View Lux to measure Day 0 time point both select cell lines. LUM plus, gain 3500, 0.1 s and focal height 12.5 [mm] on PheraStar reader. The raw data was extracted from the instrument and normalized all fields containing test compounds to the average of all wells containing DMSO alone as neutral control. From this value, the percent growth inhibition was calculated for each compound. Dose response curves and inhibitory IC50s were generated by graphing the normalized data values against the compound concentration using either a program such as GraphPad™ or Excel Fit.

[2] = biological target: T2, ERK2[2-360(p-T185/p-Y187)]-Avi (Homo sapiens, UniProt P28482); test: Biochemical assay (HTRF competition assay); type: binding; details: HTRF competition with Example 15 probe, overnight at RT; read-out: Biochemical qualified AC50
T2 construct: 400 pM ERK2[2-360(p-T185/p-Y187)]-Avi was added to the plate
T2 sequence (P28482 2-360 limits assumed): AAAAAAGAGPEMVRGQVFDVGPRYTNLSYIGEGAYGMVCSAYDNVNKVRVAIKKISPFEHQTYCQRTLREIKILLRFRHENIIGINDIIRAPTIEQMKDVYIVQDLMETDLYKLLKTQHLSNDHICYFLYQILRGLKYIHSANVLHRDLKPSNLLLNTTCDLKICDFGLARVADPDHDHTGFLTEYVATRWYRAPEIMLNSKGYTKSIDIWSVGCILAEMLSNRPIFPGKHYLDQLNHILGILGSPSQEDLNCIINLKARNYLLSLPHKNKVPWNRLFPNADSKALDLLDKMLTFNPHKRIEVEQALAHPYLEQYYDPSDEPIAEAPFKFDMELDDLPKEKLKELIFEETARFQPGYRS
Procedure: The competition assays were performed at RT in a 384-well white polystyrene, flat bottom plate (Greiner #784075) using a final reaction volume of 15 μL and the following assay buffer conditions: 50 mM MOPS, pH 7.2, 10 mM MgCl2, 0.5 mM TCEP, 0.01% Triton-X-100. 75 nL of a 10 mM compound solution in DMSO or 100% DMSO (12 point titration, final concentration: 50 μM-300 pM; final DMSO: 0.5%) was added using an acoustic liquid handler (Echo, Beckman Coulter) to wells containing 7.5 μL of 1-(6-((R)-3-(1-(5-chloro-1-((tetrahydro-2H-pyran-4-yl)methyl)-1H-indole-3-carbonyl)-4-(4-fluorophenyl)piperidine-4-carboxamido)pyrrolidin-1-yl)-6-oxohexyl)-3,3-dimethyl-5-sulfo-2-((1E,3E)-5-((E)-1,3,3-trimethyl-5-sulfoindolin-2-ylidene)penta-1,3-dien-1-yl)-3H-indol-1-ium (Example 15); 7.5 μL 400 pM SA-Tb (Cisbio, 610SATLB) and 400 pM ERK2[2-360(p-T185/p-Y187)]-Avi was added to the plate and incubated overnight at RT. HTRF signal was measured using a microplate reader (PheraStar, BMG Labtech) with excitation and emission wavelengths of […], respectively. The inhibitor dose-response curves were analyzed from the HTRF ratio signal using normalized IC50 regression curve fitting with control-based normalization.

Row | AC50 [1] [nM] | Compound | AC50 (WM793 cells; Homo sapiens, WM793, 72 h) [nM] | AC50 [2] [nM] | AC50 (WM793 cells) [nM]
1 | 80 | CCO[C@H]1CC[C@H](Cc2c(C)n(C(=O)N3CCC(C(=O)N[C@H]4CC[C@H](C(=O)O)C[C@@H]4C)(c4ccc(F)cc4)CC3)c3cc(F)ccc23)CC1 [Example 7, (1S,3S,4S)-4-(1-(3-(((1r,4S)-4-ethoxycyclohexyl)methyl)-6-fluoro-2-methyl-1H-indole-1-carbonyl)-4-(4-fluorophenyl)piperidine-4-carboxamido)-3-methyl cyclohexane-1-carboxylic acid] | 96 | 0.33 | –
2 | 24 | C[C@H]1C[C@@H](C(=O)O)CC[C@@H]1NC(=O)[C@@]1(c2ccc(F)cc2)CCN(C(=O)N2CC([C@H]3CC[C@H](OC4CCOCC4)CC3)c3ccc(F)cc32)[C@@H](C)C1 (single isomer, unassigned) [Example 4a] | 4 | 0.87 | –
3 | 19 | CCc1c(C[C@H]2CC[C@H](OC3CCOCC3)CC2)c2ccc(F)cc2n1C(=O)N1CCC(C(=O)N[C@H]2CC[C@H](C(=O)O)CC2(C)C)(c2ccc(F)cc2)CC1 [Example 1e] | 70 | < 0.28 | –
4 | 160 | CCc1c(C[C@H]2CC[C@H](OC3CCOCC3)CC2)c2ccc(F)cc2n1C(=O)N1CC[C@@](C(=O)N[C@H]2CC[C@H](C(=O)O)C[C@@H]2C)(c2ccc(F)c(F)c2)C[C@@H]1C [Example 1a] | 10 | < 0.28 | –
5 | – | CN1CCC(NC(=O)C2(c3ccc(F)cc3)CCN(C(=O)c3c(C=O)n(CC4CCOCC4)c4ccc(Cl)cc34)CC2)CC1 [Example 11d] | 430 | – | –
6 | 88 | C[C@H]1C[C@@H](C(=O)O)CC[C@@H]1NC(=O)C1(c2ccc(F)cc2)CCN(C(=O)n2c3c(c4ccc(F)cc42)[C@H](c2ccccc2)OCC3)CC1 (single isomer, unassigned) [Example 10a] | 77 | 0.35 | –
7 | – | CN1CC[C@@H](NC(=O)C2(c3ccc(F)cc3)CCN(C(=O)c3c(C=O)n(CC4CCOCC4)c4ccc(Cl)cc34)CC2)C1 [Example 11f] | 140 | – | –
8 | 31 | CCO[C@H]1CC[C@H](Cc2c(C)n(C(=O)N3CC[C@@](C(=O)N[C@H]4CC[C@H](C(=O)O)C[C@@H]4C)(c4ccc(F)cc4)C[C@@H]3C)c3cc(F)ccc23)OC1 (mixture of isomers) [Example 8, (1S,3S,4S)-4-((2S,4S)-1-(3-((trans-5-ethoxytetrahydro-2H-pyran-2-yl)methyl)-6-fluoro-2-methyl-1H-indole-1-carbonyl)-4-(4-fluorophenyl)-2-methylpiperidine-4-carboxamido)-3-methylcyclohexane-1-carboxylic acid] | 15 | < 0.28 | –
9 | – | O=Cc1c(C(=O)N2CCC(C(=O)N[C@H]3CNC[C@H]3F)(c3ccc(F)cc3)CC2)c2cc(Cl)ccc2n1CC1CCOCC1 [Example 14, 1-(5-chloro-2-formyl-1-((tetrahydro-2H-pyran-4-yl)methyl)-1H-indole-3-carbonyl)-4-(4-fluorophenyl)-N-((3S,4R)-4-fluoropyrrolidin-3-yl)piperidine-4-carboxamide] | 120 | 0.48 | –
10 | – | CN1C[C@@H](F)[C@@H](NC(=O)C2(c3ccc(F)cc3)CCN(C(=O)c3c(C(F)F)n(CC4CCOCC4)c4ccc(Cl)cc34)CC2)C1 [Example 11i] | 54 | 0.72 | –
11 | – | CN1C[C@@H](F)[C@@H](NC(=O)C2(c3ccc(F)cc3)CCN(C(=O)c3c(C#N)n(CC4CCOCC4)c4ccc(Cl)cc34)CC2)C1 [Example 11j] | 730 | 0.97 | –
12 | – | CN1CC[C@@H](NC(=O)C2(c3ccccc3)CCN(C(=O)c3c(C=O)n(CC4CCOCC4)c4ccc(Cl)cc34)CC2)C1 [Example 11a] | 300 | 0.87 | –
13 | – | CN1CC(NC(=O)C2(c3ccc(F)cc3)CCN(C(=O)c3c(C=O)n(CC4CCOCC4)c4ccc(Cl)cc34)CC2)C1 [Example 11e] | 290 | – | –
14 | – | C[C@H]1[C@@H](NC(=O)C2(c3ccc(F)cc3)CCN(C(=O)c3c(C=O)n(CC4CCOCC4)c4ccc(Cl)cc34)CC2)CN1C [Example 11c] | 17 | – | –

Row | Compound | AC50 [1] [nM] | AC50 (WM793 cells; Homo sapiens, WM793, 72 h) [nM] | AC50 [2] [nM] | AC50 (WM793 cells) [nM]
15 | CCc1c(C[C@H]2CC[C@H](OC3CCOCC3)CC2)c2ccc(F)cc2n1C(=O)N1CC[C@@](C(=O)N[C@H]2CC[C@H](C(=O)O)C[C@@H]2C)(c2ccc(F)cc2)C[C@@H]1C [Example 6, (1S,3S,4S)-4-((2S,4S)-1-(2-ethyl-6-fluoro-3-(((1r,4S)-4-((tetrahydro-2H-pyran-4-yl)oxy)cyclohexyl)methyl)-1H-indole-1-carbonyl)-4-(4-fluorophenyl)-2-methylpiperidine-4-carboxamido)-3-methylcyclohexane-1-carboxylic acid] | 72 | – | 0.98 | 23
16 | Cc1c(C[C@H]2CC[C@H](OC(C)C)CC2)c2ccc(F)cc2n1C(=O)N1CCC(C(=O)N[C@H]2CC[C@H](C(=O)O)C[C@@H]2C)(c2ccc(F)cc2)CC1 [Example 1, (1S,3S,4S)-4-(1-(6-fluoro-3-(((1r,4S)-4-isopropoxycyclohexyl)methyl)-2-methyl-1H-indole-1-carbonyl)-4-(4-fluorophenyl)piperidine-4-carboxamido)-3-methylcyclohexane-1-carboxylic acid] | 100 | – | 0.33 | 110
17 | CC(C)O[C@H]1CC[C@H](Cn2c(C=O)c(C(=O)N3CCC(C(=O)N[C@H]4CC[C@H](C(=O)O)C[C@@H]4C)(c4ccc(F)cc4)CC3)c3cc(Cl)ccc32)CC1 [Example 11h] | 54 | 120 | < 0.28 | –

From patent publication US20250092036A1, “COMPOUNDS AND COMPOSITIONS FOR MODULATING THE ACTIVITY OF ERK” (Novartis AG, priority 2023, published 2025)
